For assay [1], the system named is ALK. Description: In vitro transcription-translation (IVTT) reporter assay, ALK test sequence. Type of assay: biochemical. Conditions: HeLa S3 lysate, sfGFP/mCherry ratio, 2 hrs at 30° C. The text has this:
(§1) All reporter constructs have been cloned into the pT7CFE1-CHis plasmid (ThermoFisher #88860) using Gibson assembly procedures (NEB #E2611L). The parental pT7CFE1-CHis plasmid contains an EMCV IRES at the 5′UTR for translation initiation, a multiple-cloning site (MCS) for gene insertion, an optional C-terminal His-epitope tag, and polyA sequence in the 3′UTR to regulate mRNA stability. All reporters are designed to be inserted at the MCS to include a red fluorescent protein (mCherry), P2A self-cleaving peptide which releases the preceding mCherry protein product, and a fusion open reading frame containing a 3×FLAG epitope, a peptide sequence of interest (TEST), and green fluorescent protein (sfGFP).
(§2) Construct Plasmid Preparation: All plasmids are isolated from MACH1 cells (ThermoFisher) grown overnight in ampicillin-containing luria broth, and purified using ZymoPure Express Plasmid Midiprep Kit (Zymo Research). Constructs are sequenced verified and diluted to a working concentration of 110 ng/μL.
(§3) HeLa S3 Lysate Preparation: HeLa S3 cell pellets are acquired from Ipracell/Ipratech (Belgium) and shipped as 4 mL frozen cell pellets on dry ice for storage at −80° C. until use. The procedure for lysate preparation is as follows. Prepare 1× Lysis Buffer, cold and stored on ice:
(§4) Each preparation takes 8 cell pellets (4 ml packed volume each, approximately 1.0×10^9 cells per pellet). Thaw cell pellets from −80° C. on ice for 90 mins. Lay pellets horizontally on top of the ice and rotate every 30 mins to ensure even thawing. Once thawed, add 4 mL of cold lysis buffer to each pellet, and using a serological pipet, gently pipet up and down to break up clumps. Incubate resuspended cells in ice for an additional 30 mins (plunged into ice). During 30 min incubation, rinse and RNase-zap (Ambion) glass dounces (use loose pestle “A”), gently dry and place on ice until needed. Prepare RNase-free Eppendorf tubes for spinning and for batch storage. Add batch labels to 1.5-1.7 mL RNase-free microcentrifuge tubes (labeling scheme below). Each batch will have an extra 1.5-1.7 mL RNase-free microcentrifuge tube for 40 μL of lysate, label the top of this tube (labeling scheme below). After 30 min incubation, transfer all 8 mL of cell pellet to dounce. Cell lysis is complete after douncing 100 times. Aliquot cell lysis into 1.5-1.7 mL temporary-microcentrifuge tubes. Place tubes in centrifuge with “fins” out, and spin at 1,200 xg for 5 mins. After the first spin use a 1 mL pipet to resuspend each tube and repeat spin. This acts as an additional lysis step, is more vigorous and increases lysate yield. During second spin get liquid N2 and a fresh conical tube on ice.
(§5) After spin is complete, transfer supernatant (lysate) from microcentrifuge tubes into the 50 mL conical tube and keep on ice. Repeat steps 10-14 for all other cell pellets until completed. Once all cell lysate has been transferred to the 50 mL conical tube pipet to mix so the solution is homogenous. Transfer 1 mL of lysate into batch-labeled microcentrifuge tubes and flash freeze in liquid nitrogen. Be sure to pipet up and down to mix throughout transfer step. Place all tubes in the […] for long-term storage.
(§6) In vitro transcription-translation assay setup: Each assay includes a master mix containing lysate and shared components, a 96-well plate containing compound titrations for testing, a 96-well DNA plate with reporter constructs to be tested, 96-well skirted PCR plates, and 96-well flat-bottom, black, fluorescent assay plates. […]
For orientation: A reporter such as luciferase makes a cellular process visible.

For assay [2], the system named is MYC. Description: In vitro transcription-translation (IVTT) reporter assay, MYC test sequence. The format is biochemical. The note with it: HeLa S3 lysate, sfGFP/mCherry ratio, 2 hrs at 30° C.
Text: as §1, §2, §3, §4, §5, §6

Usually IC50 stands for the concentration at which inhibition is half-maximal. Take `COc1ccc(C[C@H]2NC[C@H](O)[C@H]2OC(=O)c2ccc(F)c(S(=O)(=O)N(C)C)c2)cc1` [V000196, (2R,3S,4S)-4-hydroxy-2-[(4-methoxyphenyl)methyl]pyrrolidin-3-yl 3-(dimethylsulfamoyl)-4-fluorobenzoate]: the IC50 in assay [1] and in assay [2] was greater than 30 µM in each case.
For the molecule `COc1ccc(C[C@H]2NC[C@H](O)[C@H]2OC(=O)CC[C@H]2CNCCN2)cc1` [V041828, (2R,3S,4S)-4-hydroxy-2-[(4-methoxyphenyl)methyl]pyrrolidin-3-yl 3-[(2S)-piperazin-2-yl]propanoate], the IC50 in assay [1] and in assay [2] was greater than 30 µM throughout.
Consider `COc1ccc(C[C@H]2NC[C@H](O)[C@H]2OC(=O)[C@@H]2CN(Cc3ccccc3)CC23CNC3)cc1` [V186717, (2R,3S,4S)-4-hydroxy-2-[(4-methoxyphenyl)methyl]pyrrolidin-3-yl (8S)-6-benzyl-2,6-diazaspiro[3.4]octane-8-carboxylate], for which the IC50 in assay [1] and in assay [2] was greater than 30 µM each time.
Regarding `COc1ccc(C[C@H]2NC[C@H](O)[C@H]2OC(=O)C2(N)CCCC2)cc1` [V186782, (2R,3S,4S)-4-hydroxy-2-[(4-methoxyphenyl)methyl]pyrrolidin-3-yl 1-aminocyclopentane-1-carboxylate], the IC50 in assay [1] and in assay [2] was greater than 30 µM throughout.
`COc1ccc(C[C@H]2NC[C@H](O)[C@H]2OC(=O)[C@H]2CC[C@@H](O)CC2)cc1` [V186823, (2R,3S,4S)-4-hydroxy-2-[(4-methoxyphenyl)methyl]pyrrolidin-3-yl (1 s,4 s)-4-hydroxy cyclohexane-1-carboxylate]: the results for the IC50 in assay [1] and in assay [2] were 20 to 30 µM and greater than 30 µM, respectively.
For the molecule `COc1ccc(C[C@H]2NC[C@H](O)[C@H]2OC(=O)CC[C@H]2CN(C)CCN2C)cc1` [V186854, (2R,3S,4S)-4-hydroxy-2-[(4-methoxyphenyl)methyl]pyrrolidin-3-yl 3-[(2S)-1,4-dimethylpiperazin-2-yl]propanoate; trifluoroacetic acid], the IC50 in assay [1] and in assay [2] was greater than 30 µM in each case.
Take `COc1ccc(C[C@H]2NC[C@H](O)[C@H]2OC(=O)CCn2ccc(=O)[nH]c2=O)cc1` [V186992, (2R,3S,4S)-4-hydroxy-2-[(4-methoxyphenyl)methyl]pyrrolidin-3-yl 3-(2,4-dioxo-3H-pyrimidin-1-yl)propanoate]: the IC50 in assay [1] and in assay [2] was less than 10 µM each time.
In the case of `CC(=O)O[C@@H]1[C@@H](O)CN[C@@H]1Cc1ccc(-c2nn[nH]n2)cc1` [V187008, (2R,3S,4S)-4-hydroxy-2-{[4-(2H−1,2,3,4-tetrazol-5-yl)phenyl]methyl}pyrrolidin-3-yl acetate; trifluoroacetic acid], the IC50 in assay [1] and in assay [2] was less than 10 µM in each case.
For `COc1ccc(C[C@H]2NC[C@H](O)[C@H]2OC(=O)Cc2cccs2)cc1` [V187050, (2R,3S,4S)-4-hydroxy-2-[(4-methoxyphenyl)methyl]pyrrolidin-3-yl 2-(thiophen-2-yl)acetate], the IC50 in assay [1] and in assay [2] was less than 10 µM in each case.
For the molecule `COc1ccc(C[C@H]2NC[C@H](O)[C@H]2OC(=O)Cc2nccs2)cc1` [V187052, (2R,3S,4S)-4-hydroxy-2-[(4-methoxyphenyl)methyl]pyrrolidin-3-yl 2-(1,3-thiazol-2-yl)acetate; trifluoroacetic acid], the IC50 in assay [1] and in assay [2] was less than 10 µM in each case.
Take `COc1ccc(C[C@H]2NC[C@H](O)[C@H]2OC(=O)CCc2ccccc2)cc1` [V187069, (2R,3S,4S)-4-hydroxy-2-[(4-methoxyphenyl)methyl]pyrrolidin-3-yl 3-phenylpropanoate]: the IC50 in assay [1] and in assay [2] was less than 10 µM throughout.
For the molecule `COc1ccc(C[C@H]2NC[C@H](O)[C@H]2OC(=O)CCc2cn(C)cn2)cc1` [V187096, (2R,3S,4S)-4-hydroxy-2-[(4-methoxyphenyl)methyl]pyrrolidin-3-yl 3-(1-methylimidazol-4-yl)propanoate; trifluoroacetic acid], the IC50 in assay [1] and in assay [2] was less than 10 µM in each case.
In the case of `CC(=O)O[C@@H]1[C@@H](O)CN[C@@H]1Cc1ccc(OC(F)(F)F)cc1` [V187185, (2R,3S,4S)-4-hydroxy-2-{[4-(trifluoromethoxy)phenyl]methyl}pyrrolidin-3-yl acetate], the 50% inhibitory concentration (IC50) in assay [2] is less than 10 µM.
With `O=C(CC1CC(F)(F)C1)O[C@@H]1[C@@H](O)CN[C@@H]1Cc1ccc(-c2cnco2)cc1` [V192387, (2R,3S,4S)-4-hydroxy-2-{[4-(1,3-oxazol-5-yl)phenyl]methyl}pyrrolidin-3-yl 2-(3,3-difluorocyclobutyl)acetate], the IC50 in assay [2] is less than 10 µM.
Consider `O=C(CC1CC(F)(F)C1)O[C@@H]1[C@@H](O)CN[C@@H]1Cc1ccc(-c2cncs2)cc1` [V192840, (2R,3S,4S)-4-hydroxy-2-{[4-(1,3-thiazol-5-yl)phenyl]methyl}pyrrolidin-3-yl 2-(3,3-difluorocyclobutyl)acetate], for which the IC50 in assay [2] was less than 10 µM.
Consider `O=C(CC[C@@H]1CCCN1)O[C@@H]1[C@@H](O)CN[C@@H]1Cc1ccc(-c2cnco2)cc1` [V192841], for which the IC50 in assay [2] was less than 10 µM.
With `O=C(CC[C@@H]1CCCN1)O[C@@H]1[C@@H](O)CN[C@@H]1Cc1ccc(-c2cncs2)cc1` [V192842, (2R,3S,4S)-4-hydroxy-2-{[4-(1,3-thiazol-5-yl)phenyl]methyl}pyrrolidin-3-yl 3-[(2S)-pyrrolidin-2-yl]propanoate], the IC50 in assay [2] is less than 10 µM.
`O=C(Cc1cccc(F)c1)O[C@@H]1[C@@H](O)CN[C@@H]1Cc1ccc(-c2cnco2)cc1` [V192843, (2R,3S,4S)-4-hydroxy-2-{[4-(1,3-oxazol-5-yl)phenyl]methyl}pyrrolidin-3-yl 2-(3-fluorophenyl)acetate]: the IC50 in assay [2] is less than 10 µM.
`O=C(Cc1cccc(F)c1)O[C@@H]1[C@@H](O)CN[C@@H]1Cc1ccc(-c2cncs2)cc1` [V192844, (2R,3S,4S)-4-hydroxy-2-{[4-(1,3-thiazol-5-yl)phenyl]methyl}pyrrolidin-3-yl 2-(3-fluorophenyl)acetate]: the IC50 in assay [2] was less than 10 µM.
Consider `COc1ccc(C[C@H]2NC[C@H](O)[C@H]2OC(=O)CC[C@@H]2CCCN2)cc1` [V192931, (2R,3S,4S)-4-hydroxy-2-[(4-methoxyphenyl)methyl]pyrrolidin-3-yl 3-[(2S)-pyrrolidin-2-yl]propanoate], for which, in assay [2], the IC50 was less than 10 µM.
The same measure, in the same setting: next, `CC(=O)O[C@@H]1[C@@H](O)CN[C@@H]1Cc1ccc(-c2cnco2)cc1` [V192987, (2R,3S,4S)-4-hydroxy-2-{[4-(1,3-oxazol-5-yl)phenyl]methyl}pyrrolidin-3-yl acetate]: less than 10 µM; `O=C(C[C@@H]1CCNC1)O[C@@H]1[C@@H](O)CN[C@@H]1Cc1ccc(C(F)F)cc1` [V193046, (2R,3S,4S)-2-{[4-(difluoromethyl)phenyl]methyl}-4-hydroxypyrrolidin-3-yl 2-[(3S)-pyrrolidin-3-yl]acetate]: less than 10 µM; `O=C(C[C@@H]1CCNC1)O[C@@H]1[C@@H](O)CN[C@@H]1Cc1ccc(-c2cnco2)cc1` [V193047, (2R,3S,4S)-4-hydroxy-2-{[4-(1,3-oxazol-5-yl)phenyl]methyl}pyrrolidin-3-yl 2-[(3S)-pyrrolidin-3-yl]acetate]: less than 10 µM.

The values are drawn from patent US20250091989A1, “SMALL MOLECULE PROTEIN SYNTHESIS MODULATORS” (Interdict Bio, Inc., priority 2023, published 2025).
